Series [1] relates to Staphylococcus aureus (ATCC 25923). On the set-up: method as in Alsaeedi et al., [2015]. The settings on record: diffusion method; ref Alsaeedi et al., [2015]; cited from earlier work.
Series [2] relates to Bacillus subtilis (ATCC 6633). On the set-up: method as in Alsaeedi et al., [2015]. Particulars: diffusion method; ref Alsaeedi et al., [2015]; cited from earlier work.
For series [3], the system named is A375 melanoma cells. The series is described as follows: Anticancer assay (resazurin). It counts as cell-based, human. Particulars: for IC50: n = 3, read-out: Anticancer activity, IC50 ± SD, A375. Here is the method: (§1) The anticancer activities of synthesized compounds were evaluated using a resazurin‐based assay (Czekanska, [2011]). Accordingly, a screening method similar to that of the cytotoxicity assay was used to screen for anticancer activity, using human melanoma (A375), promyelocytic leukemia (Clone 15 HL‐60), lung cancer (A549), and breast cancer (MCF7) cells. The culture and assay methods are provided in the Supinfo S1.
(§2) The potential anticancer activities of synthesized compounds were screened using the resazurin assay. ^5 Breast adenocarcinoma (MCF7, ATCC® HTB-22™) and human melanoma (A375, ATCC® CRL-1619™) cells were cultured in Hyclone Dulbecco's modified Eagle’s medium with high glucose (Separations) supplemented with 10 % fetal bovine serum (FBS) (Thermofisher Scientific) and 1 % L-glutamine, penicillin-streptomycin and non-essential amino acids (Lonza). Human lung carcinoma (A549, ATCC®, CCL-185™) cells were cultured in Ham’s F12K medium supplemented with 10% FBS and 1% L-glutamine, penicillin-streptomycin and non-essential amino acids. Human promyelocytic leukemia (Clone 15 HL-60, ATCC® CRL-1946™) cells were cultured in RPMI-1640 medium (Sigma Aldrich) supplemented with 10% FBS and 1% penicillin-streptomycin. The cell lines were maintained in a humidified atmosphere at 37 °C and 5% CO2.
(§3) For the resazurin assay, 96 well plates were prepared with 100 μL of 100 000 cells/mL MCF7 cell suspension, 100 μL of 50 000 cells/mL A375 cell suspension, 100 μL of 25 000 cells/mL A549 cell suspension, or 50 μL of 50 000 cells/mL HL-60 cell suspension. The MCF7, A375 and A549 cell plates were incubated for 24 hours to allow adherence of the cells to the plate surface, after which the growth medium is replaced with 100 μL medium containing compounds. […] The cell lines were treated with: (i) parthenolide (Sigma Aldrich) (positive control); (ii) growth medium and solvent (negative control to compensate for possible solvent effects); (iii) growth medium and experimental compound solutions. […] Blanks contained growth medium without cells. The treated plates were incubated for 48 hours.
(§4) To initiate the resazurin assay, 50 μL of sterile-filtered resazurin sodium salt (Sigma Aldrich) solution (0.01 % in PBS) was added and the plates incubated for 2 hours (MCF7, A375 and A549 cells) or 24 hours (HL-60 cells). Absorbance was measured at 570 and 600 nm using the Thermofisher Scientific GO Multiscan plate reader. Data analysis was performed for each biological replicate using SkanIt 4.0 Research Edition software. Further data analysis, calculations and IC50 determinations were identical to that of the antileishmanial and cytotoxicity assays.
(§5) For the final IC50 of each compound, the mean IC50 of the biological replicates were calculated with standard deviation (SD).
(In general: The colour change of resazurin is a common sign of viable cells or microbes.)

Series [4] deals with Clone 15 HL‐60 promyelocytic leukemia cells. The series is described as follows: Anticancer assay (resazurin). It counts as cell-based, human. Particulars: for IC50: read-out: Anticancer activity, IC50 ± SD, Clone 15 HL‐60; for Preliminary screening, growth inhibition, Clone 15 HL‐60: cutoff 50% growth inhibition at 10 μM; for Selectivity Index SI1 (anticancer): IC50 Vero (Table 2)/IC50 Clone 15 HL‐60. The method, then:
as §1, §2, §3, §4, §5

The test system of series [5] is Candida albicans (ATCC 10231). On the set-up: method as in Alsaeedi et al., [2015]. Particulars: diffusion method; ref Alsaeedi et al., [2015]; cited from earlier work.
Series [6] deals with L. donovani strains (1S and 9515) amastigotes. Briefly: Anti-amastigote selectivity, strain not separated. In kind it is cell-based. The settings on record: strain not given. The method, then:
The activities of synthesized compounds against the intramacrophage parasites of the three Leishmania strains were evaluated using a modified, resazurin‐based method (Jain et al., [2012]; Njanpa et al., [2021]). Suspension cultures of human acute monocytic leukemia (THP‐1) cells were maintained in RPMI‐1640 medium (Sigma Aldrich) supplemented with 10% FBS and 1% penicillin–streptomycin, at 37°C and 5% CO2 in a humidified atmosphere. Duplicate 96‐well plates (for respective anti‐amastigote and cytotoxicity assays) were seeded with 200 μl of a 2.5 × 10^5 cells/ml suspension treated with 25 ng/ml phorbol 12‐myristate 13‐acetate (PMA), followed by 48‐h incubation to promote differentiation into adherent macrophages.
For the anti‐amastigote assay, differentiated plates were carefully washed with PBS, followed by the addition of 200 μl of stationary phase promastigotes in RPMI 1640 medium with 2% FBS. An MOI of 30:1 was used for all three Leishmania strains. The parasite‐treated plates were incubated for 24 h at 32°C (L. major) or 37°C (L. donovani) and 5% CO2 to promote infection of the macrophages. […] Blanks were represented by growth medium without cells, as well as parasite‐free THP‐1 cells. The treated plates were incubated for 72 h.
After incubation, the plates were gently washed three times with PBS to remove any remaining extracellular parasites. The wells were then treated with 20 μl of 0.05% sodium dodecyl sulfate in PBS for 30 s to lyse the host macrophages. Lysis was terminated by adding 180 μl promastigote growth medium with 10% FBS. To initiate the resazurin assay, 10 μl of resazurin solution (0.025% in PBS) was added to all wells and the plates were incubated for 24 h at 32°C (L. major) or 37°C (L. donovani) and 5% CO2. Absorbance measurements, calculations, and IC50 determinations were performed as described for the antipromastigote assay (Supinfo S1).

In series [7] the test system is THP‐1 cells. Briefly: Cytotoxicity on differentiated host THP-1 macrophages, resazurin assay. It counts as cell-based, human. The settings on record: differentiated THP-1 macrophages, 72 h; read-out: Cytotoxicity, IC50 ± SD, THP‐1.
Series [8] has as its system Vero cells. The series is described as follows: in vitro.

The values that follow come from article PMC9546217, “Exploring novel nitrofuranyl sulfonohydrazides as anti‐Leishmania and anti‐cancer agents: Synthesis, in vitro efficacy and hit identification” (Chemical Biology & Drug Design, 2022).

Read-outs that look alike come from different tables or passages of the source. A value given as a limit tells only on which side of the number the result lay.

As a reminder, the IC50 is the concentration at which inhibition is half-maximal. As to `Cc1ccc(S(=O)(=O)N/N=C/c2ccc([N+](=O)[O-])o2)cc1` [2c, (E)-4-Methyl-N'-[(5-nitrofuran-2-yl)methylene]benzenesulfonohydrazide], the “antimicrobial activity (inhibition zone)” value in series [1], in series [2] and in series [5] was “no activity” throughout. Also, the IC50 in series [3] (Homo sapiens, A-375) was above 10 µM; in series [4] (Homo sapiens, HL-60, n = 3), above 10 µM. For the same molecule, the “Preliminary screening, growth inhibition, Clone 15 HL‐60” value in series [4] is recorded as “qualified”.

Regarding `CC(C)c1ccc(S(=O)(=O)N/N=C/c2ccc([N+](=O)[O-])o2)cc1` [2d, (E)-4-Isopropyl-N'-[(5-nitrofuran-2-yl)methylene]benzenesulfonohydrazide], the 50% inhibitory concentration (IC50) in series [3] (Homo sapiens, A-375) was above 10 µM; in series [4] (Homo sapiens, HL-60, n = 3), below 10 µM; in series [4] (n = 3), 7.85 ± 0.38 µM. The “Selectivity Index SI1 (anticancer)” value in series [4] was 3.

`CC(C)(C)c1ccc(S(=O)(=O)N/N=C/c2ccc([N+](=O)[O-])o2)cc1` [2f, (E)-4-(tert-Butyl)-N'-[(5-nitrofuran-2-yl)methylene]benzenesulfonohydrazide]: in series [6], the “selectivity index (SI) relative to the host THP‐1 cells” value is recorded as above 10 and the “selectivity index (SI) toward Vero cells” value is below 10. Further, the IC50 in series [3] (Homo sapiens, A-375) is above 10 µM. Further, the “Selectivity Index SI1 (anticancer)” value in series [4] came to 6.

As to `O=[N+]([O-])c1ccc(/C=N/NS(=O)(=O)c2ccc(-c3ccccc3)cc2)o1` [2h, (E)-N'-[(5-Nitrofuran-2-yl)methylene]-(1,1'-biphenyl)-4-sulfonohydrazide], in series [6], the “selectivity index (SI) relative to the host THP‐1 cells” value is listed as above 10 and the “selectivity index (SI) toward Vero cells” value is below 10. Also, in series [3] (Homo sapiens, A-375), the IC50 worked out at 8.05 ± 0.57 µM. The “Selectivity index SI2 (anticancer)” value in series [3] (IC50 Vero (Table 2)/IC50 A375) is on record as 2. Moreover, the “Preliminary screening, growth inhibition, A375” value in series [3] (cutoff 50% growth inhibition at 10 μM) was “qualified”. Besides, in series [4], the “Selectivity Index SI1 (anticancer)” value is 17 and the “Preliminary screening, growth inhibition, Clone 15 HL‐60” value is reported as “qualified”.

With `O=[N+]([O-])c1ccc(/C=N/NS(=O)(=O)c2cccc3c2OCCO3)o1` [2l, (E)-N'-[(5-Nitrofuran-2-yl)methylene]-2,3-dihydrobenzo[b][1,4]dioxine-5-sulfonohydrazide], in series [6], the “selectivity index (SI) relative to the host THP‐1 cells” value was above 10 and the “selectivity index (SI) toward Vero cells” value is below 10. Besides, the IC50 in series [3] (Homo sapiens, A-375) was above 10 µM. For the same molecule, the half-inhibitory concentration (IC50) in series [4] (Homo sapiens, HL-60, n = 3) is above 10 µM.

`O=Cc1ccc([N+](=O)[O-])o1` [NFA, 5‐nitro‐2‐furaldehyde, reference compound]: the IC50 in series [7] was 80.9 ± 6.37 µM; in series [3] (Homo sapiens, A-375) it was above 10 µM; in series [4] (Homo sapiens, HL-60, n = 3) it was below 10 µM; in series [4] (n = 3) it was 9.45 ± 0.61 µM. In addition, in series [4], the “Selectivity Index SI1 (anticancer)” value is listed as 2.

Take `O=C1CN(/N=C/c2ccc([N+](=O)[O-])o2)C(=O)N1` [NFT, nitrofurantoin, reference compound]: the 50% inhibitory concentration (IC50) in series [3] (Homo sapiens, A-375) is above 10 µM; in series [4] (Homo sapiens, HL-60, n = 3) it was above 10 µM.

Turning to `O=C(N/N=C/c1ccc([N+](=O)[O-])o1)c1ccc(O)cc1` [NFX, Nifuroxazide, reference compound], the IC50 in series [3] (Homo sapiens, A-375) is above 10 µM; in series [4] (Homo sapiens, HL-60, n = 3) it was 8.97 ± 0.47 µM. The “Selectivity Index SI1 (anticancer)” value in series [4] was above 11.

Take “(E)-2,4,6-Trimethyl-N'-[(5-nitrofuran-2-yl)methylene]benzenesulfonohydrazide [2e]”: the IC50 in series [8] was 39.8 ± 5.89 µM; in series [7], above 100 µM; in series [3], above 10 µM; in series [4] (n = 3) it was above 10 µM. Besides, in series [6], the “selectivity index (SI) relative to the host THP‐1 cells” value is above 10. In addition, the “selectivity index (SI) toward Vero cells” value in series [6] is below 10. For the same molecule, the “Preliminary screening, growth inhibition, Clone 15 HL‐60” value in series [4] is reported as “qualified”.
